One assay has as its system IRF3. The assay is described as follows: STING THP1 reporter assay, IRF pathway (Lucia luciferase). To be noted: THP1-Dual cells, 10% human plasma, 100% activation = 100 μM cGAMP, luciferase readout, read-out: THP1 Reporter Assays EC50 (μM) IRF3. It is filed as cell-based. The source says: (§1) THP1-Dual™ cells were derived from the human THP-1 monocyte cell line by stable integration of two inducible reporter constructs. To this end, THP1-Dual™ cells allow the simultaneous study of the NF-κB pathway, by monitoring the activity of SEAP, and the IRF pathway by assessing the activity of a secreted luciferase (Lucia). Both reporter proteins are readily measurable in the cell culture supernatant when using QUANTI-Blue™, a SEAP detection reagent, and QUANTI-Luc™, a luciferase detection reagent.
(§2) THP1-Dual™ cells induce the activation of NF-κB in response to STING agonists. They also trigger the IRF pathway upon stimulation with STING agonists, such as cGAMP. Here, the THP-1-Dual cells were used to assess STING binders for function on the cellular level.
(§3) Serial dilutions of compounds in DMSO were added to low volume 384 well plates at 100 nl/well using an ECHO acoustic dispenser (Labcyte, model 550) to achieve final starting concentration of 100 μM in cell suspension. THP-1 Dual™ STING reporter cells (Invivogen, Dual cells cat #THPD-nfis) were added to the plates with compounds at 15,000 cells in 10 μL per well in RPMI media (Gibco, cat #11875) containing 10% human plasma in a low volume 384-well black wall clear bottom tissue culture plate (Corning, cat #3542) for SEAP assay and low volume solid white plate (Corning, cat #3826) for luciferase assay. One column of the plate was reserved for treatment with cGAMP at 100 μM for 100% activation calculation and one column for no treatment (DMSO only) for baseline activation. Plates were then incubated in 37° C. incubator at 5% CO2 for 20 hours.
(§4) In the SEAP assay, 5 μl of 2× QuantiBlue (Invivogen, cat #Rep-qb2) is added to 384 well black plates seeded with THP1 cells and incubated at 37° C. for 2 hours. Plates were read on the Envision (Perkin Elmer) at 620 nm wavelength (OD620). In the luciferase assay, 5 μl of Quantiluc (Invivogen, Rep-qlc2) is added to white 384 well plates seeded with THP1 cells and read at 5 minutes on the Envision (Perkin Elmer) using a luminescence protocol (RLU). For both cell lines, 100% activation was determined by value (RLU) of THP-1 Dual STING cells stimulated with 100 μM cGAMP (Invivogen, cat #TLRL-NACGA23-5).

The target of assay [1] is T1, STING WT: His-TVMV-S-hSTING(155-341)-H232R (Homo sapiens, UniProt Q86WV6, H232R).
T1 construct: His-TVMV-S-hSTING(155-341)-H232R
T1 sequence (Q86WV6 with tags, fused parts or gaps H232R): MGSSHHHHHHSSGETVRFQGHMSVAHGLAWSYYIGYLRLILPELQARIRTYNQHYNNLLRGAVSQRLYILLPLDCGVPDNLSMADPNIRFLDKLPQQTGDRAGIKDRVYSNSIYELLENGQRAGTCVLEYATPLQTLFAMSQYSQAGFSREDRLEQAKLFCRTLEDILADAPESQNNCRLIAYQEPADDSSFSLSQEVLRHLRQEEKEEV
The assay is described as follows: STING HTRF binding assay, STING WT. To be noted: 20 nM His-tagged STING cytoplasmic domain, 200 nM fluorescein-labeled cGAMP analog probe, one hour; read-out: HTRF Binding Assays IC50 (μM) STING WT. How it is done:
(§5) A time resolved FRET-based competition binding assay was used to assess test article binding to STING WT and STING AQ. His-tagged STING cytoplasmic domain (WT or AQ) at a concentration of 20 nM was incubated with 2.5 nM Tb-labeled anti-His antibody, test compound, and fluorescein-labeled cGAMP analog probe (BioLog cat. no. C195) at a concentration of 200 nM (STING WT) or 40 nM (STING AQ) in PBS containing 0.005% Tween-20 and 0.1% BSA for one hour. Fluorescence at 495 nm and 520 nm was measured using an EnVision microplate reader to quantify FRET between Tb-labeled anti-His antibody and fluorescein-labeled probe. Background was defined as the signal obtained in the absence of STING protein, and background subtracted FRET ratios were normalized to the maximum signal obtained in the absence of test compound. These values were converted to a percent inhibition. Percent inhibition was determined for test compounds at 11 concentrations. The IC50, defined as the concentration of competing test compound needed to reduce specific binding of the probe by 50%, was calculated using the 4 parameter logistic equation to fit the data
Background: TR-FRET usually uses a lanthanide donor and a delayed reading to cut background.

The target in assay [2] is T2, STING AQ: His-TVMV-S-hSTING(155-341)-G230A-R293Q (Homo sapiens, UniProt Q86WV6, G230A/H232R/R293Q).
T2 construct: His-TVMV-S-hSTING(155-341)-G230A-R293Q
T2 sequence (Q86WV6 with tags, fused parts or gaps G230A/H232R/R293Q): as the sequence (Q86WV6 with tags, fused parts or gaps H232R) above, with G99A, R162Q counted along it
The experiment in a line: STING HTRF binding assay, STING AQ. To be noted: 20 nM His-tagged STING cytoplasmic domain, 40 nM fluorescein-labeled cGAMP analog probe, one hour; read-out: HTRF Binding Assays IC50 (μM) STING AQ. How it is done: as §5

The test system of a further assay is NFkB. The experiment in a line: STING THP1 reporter assay, NF-κB pathway (SEAP). It is filed as cell-based. To be noted: THP1-Dual cells, 10% human plasma, 100% activation = 100 μM cGAMP, SEAP readout, read-out: THP1 Reporter Assays EC50 (μM) NFkB.
From the text: as §1, §2, §3, §4
In general terms: Reporter assays use an easily measured gene product as a stand-in for the process of interest.

The source of these data is patent US11427610B2, “Cyclic dinucleotides as anticancer agents” (BRISTOL-MYERS SQUIBB COMPANY, priority 2017, dated 2022).

Read-outs that look alike come from different tables or passages of the source.

For the compound `Nc1ncnc2c1ncn2[C@@H]1O[C@@H]2COP(O)(=S)O[C@@H]3[C@H](O)[C@@H](COP(O)(=S)O[C@H]2[C@H]1F)O[C@H]3C#Cc1ccccc1` (single isomer, unassigned) [Example 2-2], in the assay with IRF3 (20 hours), the EC50 (in general, the midpoint of the concentration-response curve) was more than 100 µM. For the same compound, the results for the IC50 in assay [1] and in assay [2] were 9.6 µM and 0.5 µM, respectively.
Consider `Nc1ncnc2c1ncn2[C@@H]1O[C@@H]2COP(O)(=S)O[C@@H]3[C@H](O)[C@@H](COP(O)(=S)O[C@H]2[C@H]1F)O[C@H]3C#Cc1cccnc1` (single isomer, unassigned) [Example 3-2], for which the EC50 in the assay on IRF3 (20 hours) and in the assay on NFkB (20 hours) was more than 100 µM in each case. The IC50 – broadly, the concentration at which inhibition is half-maximal – turned out to be 3.4 µM in assay [1] and 0.2 µM in assay [2].
As for `C#C[C@@H]1O[C@@H]2COP(=O)(S)O[C@H]3[C@@H](F)[C@H](n4cnc5c(N)ncnc54)O[C@@H]3COP(=O)(S)O[C@@H]1[C@@H]2O` (single isomer, unassigned) [Example 1-2], the EC50 in the assay on IRF3 (20 hours) came out at 24 µM; with NFkB (20 hours), 42 µM. For the same compound, the half-inhibitory concentration (IC50) in assay [1] came out at 1.7 µM; in assay [2], 0.03 µM.
As for `Nc1ncnc2c1ncn2[C@@H]1O[C@@H]2COP(O)(=S)O[C@@H]3[C@H](O)[C@@H](COP(O)(=S)O[C@H]2[C@H]1F)O[C@H]3C#Cc1cccnc1` (single isomer, unassigned) [Example 3-1], the EC50 in the assay with IRF3 (20 hours) and with NFkB (20 hours) was more than 100 µM each time. Further, the IC50 in assay [1] is 67.4 µM; in assay [2], 1.3 µM.
On to `Nc1ncnc2c1ncn2[C@@H]1O[C@@H]2COP(O)(=S)O[C@@H]3[C@H](O)[C@@H](COP(O)(=S)O[C@H]2[C@H]1F)O[C@H]3C#Cc1ccccc1` (single isomer, unassigned) [Example 2-3], for which the EC50 is more than 100 µM in the assay on IRF3 (Homo sapiens, THP-1, 20 h) and more than 100 µM in the assay with NFkB (Homo sapiens, THP-1, 20 h). For the same compound, the IC50 in assay [1] came to 20.5 µM; in assay [2] it was 0.7 µM.
For `Nc1ncnc2c1ncn2[C@@H]1O[C@@H]2COP(O)(=S)O[C@@H]3[C@H](O)[C@@H](COP(O)(=S)O[C@H]2[C@H]1F)O[C@H]3C#Cc1cccnc1` (single isomer, unassigned) [Example 3-3], the concentration for a half-maximal effect (EC50) amounted to 6 µM with IRF3 (20 hours) and 8.1 µM with NFkB (20 hours). Besides, the values for the IC50 in assay [1] and in assay [2] were 1.1 µM and 0.04 µM, respectively.
On to `Nc1ncnc2c1ncn2[C@@H]1O[C@@H]2COP(O)(=S)O[C@@H]3[C@H](O)[C@@H](COP(O)(=S)O[C@H]2[C@H]1F)O[C@H]3C#Cc1ccccc1` (single isomer, unassigned) [Example 2-4], for which the EC50 in the assay on IRF3 (20 hours) is more than 100 µM. Moreover, the IC50 is more than 100 µM in assay [1] and 17 µM in assay [2].
Turning to `C#C[C@@H]1O[C@@H]2COP(=O)(S)O[C@H]3[C@@H](F)[C@H](n4cnc5c(N)ncnc54)O[C@@H]3COP(=O)(S)O[C@@H]1[C@@H]2O` (single isomer, unassigned) [Example 1-1], the EC50 in the assay on IRF3 (Homo sapiens, THP-1, 20 h) was 23 µM; in the assay with NFkB (Homo sapiens, THP-1, 20 h), 37 µM. Further, the values for the IC50 in assay [1] and in assay [2] were 1.4 µM and 0.06 µM, respectively.
Turning to `Nc1ncnc2c1ncn2[C@@H]1O[C@@H]2COP(O)(=S)O[C@@H]3[C@H](O)[C@@H](COP(O)(=S)O[C@H]2[C@H]1F)O[C@H]3C#Cc1ccccc1` (single isomer, unassigned) [Example 2-1], the EC50 in the assay with IRF3 (20 hours) was more than 100 µM. Further, the IC50 was more than 100 µM in assay [1] and 19.4 µM in assay [2].
For `Nc1ncnc2c1ncn2[C@@H]1O[C@@H]2COP(O)(=S)O[C@@H]3[C@H](O)[C@@H](COP(O)(=S)O[C@H]2[C@H]1F)O[C@H]3C#Cc1cccnc1` (single isomer, unassigned) [Example 3-4], the 50% effective concentration (EC50) with IRF3 (20 hours) and with NFkB (20 hours) was more than 100 µM each time. Moreover, the IC50 in assay [1] is 29.6 µM; in assay [2], 1.4 µM.
With `C#C[C@@H]1O[C@@H]2COP(O)(=S)O[C@H]3[C@@H](F)[C@H](n4cnc5c(N)ncnc54)O[C@@H]3COP(O)(=S)O[C@@H]1[C@@H]2O` (single isomer, unassigned) [Example 1-3], the EC50 was more than 100 µM in the assay with IRF3 (Homo sapiens, THP-1, 20 h) and more than 100 µM with NFkB (Homo sapiens, THP-1, 20 h). The IC50 stood at 55.3 µM in assay [1] and 1.9 µM in assay [2].
